Test systems include U-251; RXF 393; LOX IMVI; OVCAR-4; K562; SK-OV-3; OVCAR-8; HT-29; SF-539; NCI-H460; NCI-H522; UO-31; HCC 2998; A549; OVCAR-5; EKVX; SNB-75; NCI-H226; COLO 205; SK-MEL-28.
Experiment in all cases: inhibition of tumour cell growth, NCI panel, 48 h

The text below walks through data of ChEMBL document CHEMBL1201862, “PubChem BioAssay data set” (2004).

The structures appear in SMILES notation.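 48-hour exposure; five concentrations; linearly interpolated endpoints. Abbreviation: GI50, concentration required for 50% inhibition of growth.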 Activity calls are given as the source filed them. No stated cut-off is given here; in the data, active = GI50 up to about 1.1 µM and inactive = higher. Where only a bound is given, the exact number is not on record here.

For the compound `CCCCN1C=CN2c3nc4cc(C)c(C)cc4n3C(C(=O)OC)=C(C(=O)OC)C12` (centres undefined), the GI50 with U-251, in the experiment on RXF 393, with LOX IMVI, with OVCAR-4, in the experiment with K562 and in the experiment on SK-OV-3 was > 100 µM (inactive) each time. The GI50 in the experiment on OVCAR-8, in the experiment on HT-29, in the experiment with SF-539, in the experiment on NCI-H460, in the experiment with NCI-H522 and in the experiment with UO-31 was > 100 µM (inactive) each time. In addition, the GI50 in the experiment with HCC 2998, in the experiment with A549, with OVCAR-5, in the experiment with EKVX and in the experiment with SNB-75 was > 100 µM (inactive) throughout.

`CC12CCC3C(CCC4(O)C=CCCC34C=O)C1(O)CC(O)C2c1ccc(=O)oc1` (centres undefined): the GI50 is 0.08 µM (active) with U-251; < 0.05 µM (active) in the experiment with RXF 393; 0.0662 µM (active) with LOX IMVI; 0.0611 µM (active) with OVCAR-4; 0.0741 µM (active) in the experiment with K562; 0.109 µM (active) with SK-OV-3. Further, the GI50 was 0.0682 µM (active) with OVCAR-8; 0.117 µM (active) with HT-29; 0.148 µM (active) in the experiment with NCI-H226; 0.113 µM (active) with COLO 205; 0.134 µM (active) with SK-MEL-28; < 0.05 µM (active) in the experiment on SF-539. The GI50 with NCI-H460 was 0.0527 µM (active); in the experiment with NCI-H522 it was < 0.05 µM (active); in the experiment with UO-31, 0.0685 µM (active); in the experiment on HCC 2998, 0.117 µM (active); in the experiment on A549, 0.0504 µM (active); in the experiment with OVCAR-5, 0.191 µM (active). Besides, the GI50 in the experiment with EKVX was 0.0564 µM (active); with SNB-75, 0.0713 µM (active).

Turning to `CN(C)CCNc1c([N+](=O)[O-])cc2c3c(cccc13)C(=O)N(CCN(C)C)C2=O`, the GI50 with U-251 is 1.82 µM (inactive); with RXF 393, 1.42 µM (inactive); in the experiment on LOX IMVI it was 1.08 µM (active); in the experiment with OVCAR-4 it was 0.807 µM (active); in the experiment on K562, 0.556 µM (active); with SK-OV-3, 1.76 µM (inactive). The GI50 with OVCAR-8 is 1.05 µM (active); in the experiment with HT-29, 0.61 µM (active); in the experiment with NCI-H226, > 100 µM (inactive); in the experiment on COLO 205, 1.11 µM (active); in the experiment on SK-MEL-28 it was 1.67 µM (inactive); with SF-539 it was 2.16 µM (inactive). Also, the GI50 in the experiment on NCI-H460 was 0.653 µM (active); in the experiment with NCI-H522 it was 1.25 µM (inactive); with UO-31 it was 1.58 µM (inactive); in the experiment with HCC 2998, 1.53 µM (inactive); in the experiment with A549 it was 1.84 µM (inactive); with OVCAR-5, 2.03 µM (inactive). In addition, the results for the GI50 with EKVX and in the experiment with SNB-75 were 2.15 µM (inactive) and 1.7 µM (inactive), respectively.

`COC(=O)C1=C(OC(=O)/C(=C/c2ccc(Cl)cc2)c2ccc(Cl)cc2)C(C(=O)OC)[C@]2(O)[C@@H](C(=O)OC)[C@H]1C[C@@H](c1ccccc1)[C@@H]2C(=O)OC` (some centres undefined): the GI50 was 26.5 µM (inactive) in the experiment on U-251; > 100 µM (inactive) with RXF 393; > 100 µM (inactive) in the experiment on LOX IMVI; > 100 µM (inactive) in the experiment on OVCAR-4; 91.6 µM (inactive) with K562; 64 µM (inactive) in the experiment on SK-OV-3. The GI50 in the experiment with OVCAR-8, in the experiment with HT-29, with NCI-H226, in the experiment with COLO 205, in the experiment on SK-MEL-28 and in the experiment on SF-539 was > 100 µM (inactive) in each case. Also, the GI50 was > 100 µM (inactive) in the experiment with NCI-H460; 3.85 µM (inactive) in the experiment on NCI-H522; 52.8 µM (inactive) in the experiment on A549; > 100 µM (inactive) in the experiment on OVCAR-5; 70.5 µM (inactive) in the experiment with EKVX; > 100 µM (inactive) with SNB-75.

For the compound `O=C1C=CC[C@H]2O[C@@H](COC(=O)Cc3ccccc3)C[C@H]2O1`, the GI50 in the experiment on U-251 is > 10 µM (inactive); in the experiment on OVCAR-4 it was 24 µM (inactive); in the experiment on K562 it was 55.6 µM (inactive); in the experiment with SK-OV-3 it was > 100 µM (inactive); with OVCAR-8 it was 28.7 µM (inactive); in the experiment on HT-29 it was 25.5 µM (inactive). Also, the GI50 in the experiment with NCI-H226 is 35.4 µM (inactive); with COLO 205, 47.5 µM (inactive); with SK-MEL-28 it was 21.9 µM (inactive); in the experiment on SF-539 it was 29.6 µM (inactive); with NCI-H460, 31.9 µM (inactive); in the experiment on UO-31, 32 µM (inactive). Further, the GI50 with A549 is 27.1 µM (inactive); in the experiment with OVCAR-5 it was 42.6 µM (inactive); with EKVX, 29.5 µM (inactive); in the experiment on SNB-75, 30.4 µM (inactive).

Consider `COc1cc(CCN(C)C)cc(OC)c1OC`, for which the GI50 in the experiment on U-251, in the experiment on RXF 393, with LOX IMVI, with OVCAR-4, with K562 and in the experiment with SK-OV-3 was > 100 µM (inactive) each time. The GI50 with OVCAR-8, in the experiment on HT-29, with NCI-H226, with COLO 205, in the experiment with SF-539 and with NCI-H460 was > 100 µM (inactive) throughout. In addition, the GI50 in the experiment with NCI-H522, in the experiment with HCC 2998, with A549, with OVCAR-5, with EKVX and in the experiment with SNB-75 was > 100 µM (inactive) in each case.

Regarding `CC1SC(c2ccccc2)N(Nc2c3ccccc3nc3ccccc23)C1=O` (centres undefined), the GI50 was > 100 µM (inactive) with U-251; 89.1 µM (inactive) in the experiment with LOX IMVI; > 100 µM (inactive) with OVCAR-4; 40.6 µM (inactive) in the experiment on K562; 28.4 µM (inactive) in the experiment on SK-OV-3; 74.1 µM (inactive) with OVCAR-8. Also, the GI50 in the experiment with HT-29 is > 100 µM (inactive); in the experiment on NCI-H226 it was 55.3 µM (inactive); in the experiment with COLO 205, > 100 µM (inactive); in the experiment on SK-MEL-28 it was > 100 µM (inactive); with SF-539 it was > 100 µM (inactive); in the experiment with NCI-H460, > 100 µM (inactive). Besides, the GI50 is 40 µM (inactive) with NCI-H522; 20.4 µM (inactive) in the experiment with UO-31; > 100 µM (inactive) in the experiment with HCC 2998; 58.5 µM (inactive) in the experiment with A549; 78.7 µM (inactive) with OVCAR-5; 48.2 µM (inactive) in the experiment on EKVX. Besides, the GI50 with SNB-75 is 34.6 µM (inactive).

`O=C1c2cccc3c2C(=O)c2c(cccc21)OCCOCCOCCOCCO3`: the GI50 is > 100 µM (inactive) in the experiment on U-251; 78.2 µM (inactive) in the experiment on RXF 393; 78.2 µM (inactive) with LOX IMVI; 74.6 µM (inactive) in the experiment with OVCAR-4; 61.4 µM (inactive) in the experiment on K562; > 100 µM (inactive) with SK-OV-3. The GI50 was > 100 µM (inactive) in the experiment on OVCAR-8; > 100 µM (inactive) with HT-29; 34.2 µM (inactive) in the experiment on NCI-H226; > 100 µM (inactive) with SF-539; 78.3 µM (inactive) in the experiment on NCI-H460; > 100 µM (inactive) in the experiment with NCI-H522. Moreover, the GI50 was 30.9 µM (inactive) in the experiment on UO-31; > 100 µM (inactive) in the experiment on HCC 2998; > 100 µM (inactive) with A549; > 100 µM (inactive) in the experiment with OVCAR-5; > 100 µM (inactive) in the experiment on EKVX; 40.9 µM (inactive) in the experiment with SNB-75.

For the compound `CC1(CO)C(O)CCC2(C)C1CCC1CC3CC12CCC3(O)CO` (centres undefined), the GI50 in the experiment on U-251 is 4.53 µM (inactive); in the experiment with RXF 393, 20 µM (inactive); with LOX IMVI, 4.72 µM (inactive); in the experiment with OVCAR-4, > 100 µM (inactive); in the experiment on K562, 14 µM (inactive); in the experiment with SK-OV-3, > 100 µM (inactive). Moreover, the GI50 in the experiment with OVCAR-8 was 4.84 µM (inactive); in the experiment with HT-29 it was 6.5 µM (inactive); in the experiment on NCI-H226, 21.2 µM (inactive); with COLO 205 it was > 100 µM (inactive); with SK-MEL-28 it was > 100 µM (inactive); in the experiment on SF-539, 2.9 µM (inactive). Moreover, the GI50 is 0.333 µM (active) with NCI-H460; > 28.2 µM (inactive) with NCI-H522; 25.3 µM (inactive) in the experiment with UO-31; 12.1 µM (inactive) in the experiment on HCC 2998; 2.71 µM (inactive) in the experiment on A549; > 36.9 µM (inactive) with OVCAR-5. Besides, the results for the GI50 with EKVX and in the experiment with SNB-75 were > 64.6 µM (inactive) and > 51.8 µM (inactive), respectively.

Turning to `CCCCCCCCCCCCCCCCCC(=O)OCC1OC(OC)C(NC(=O)N(CCCl)N=O)C(O)C1O` (centres undefined), the GI50 in the experiment with U-251 was > 10 µM (inactive); in the experiment with RXF 393, 17 µM (inactive); in the experiment with LOX IMVI, 13.6 µM (inactive); with OVCAR-4, 24 µM (inactive); with K562 it was 24.6 µM (inactive); in the experiment with OVCAR-8, 33.5 µM (inactive). Moreover, the GI50 in the experiment on HT-29 was 20.9 µM (inactive); with NCI-H226, 24.9 µM (inactive); with COLO 205, 30.3 µM (inactive); in the experiment on SK-MEL-28, 21.6 µM (inactive); with SF-539 it was 9.86 µM (inactive); in the experiment on NCI-H460 it was 5.96 µM (inactive). For the same compound, the GI50 in the experiment on NCI-H522 was 17.1 µM (inactive); in the experiment with UO-31, 24.3 µM (inactive); in the experiment with HCC 2998, 29 µM (inactive); in the experiment with A549 it was 18.1 µM (inactive); in the experiment with OVCAR-5, 44.2 µM (inactive); with SNB-75, 13.8 µM (inactive).

With `C/C=C/c1cc(=O)c([C@@H]2OC(=O)c3cc(OC)cc(OC)c32)co1` [VERMISTATIN], the GI50 in the experiment with RXF 393 was 42.2 µM (inactive); with OVCAR-4, 54.3 µM (inactive); with K562, 33.8 µM (inactive); in the experiment with OVCAR-8, 46.8 µM (inactive); in the experiment with HT-29, 34.6 µM (inactive); in the experiment with NCI-H226 it was 60.4 µM (inactive). Further, the GI50 in the experiment on COLO 205 was 22 µM (inactive); in the experiment on SK-MEL-28, 25.3 µM (inactive); in the experiment with SF-539, 26.7 µM (inactive); in the experiment with NCI-H460, 58.3 µM (inactive); in the experiment with UO-31, 24.4 µM (inactive); with HCC 2998 it was 26 µM (inactive). Also, the figures for the GI50 with A549, with EKVX and with SNB-75 were 58.6 µM (inactive), 65.5 µM (inactive) and 6.49 µM (inactive), respectively.
